Measured values from patent publication US7314879B2, “Melanocortin receptor agonists” (Eli Lilly and Company, priority 2002, dated 2008).

Assays:
MC4 [1] = molecular target: T1, MC4 (Homo sapiens, UniProt P32245); experiment: Radioligand binding assay: competitive inhibition of 125I-NDP-alpha-MSH binding to membranes of stably transfected HEK 293 cells; settings: 125I-NDP-alpha-MSH competition; Ki from IC50 by Cheng-Prusoff equation
T1 construct: expressed in transfected cells; host or cells: HEK 293
Protocol: The radioligand binding assay is used to identify competitive inhibitors of ^125I-NDP-alpha-MSH binding to cloned human MCRs using membranes from stably transfected human embryonic kidney (HEK) 293 cells.
HEK 293 cells transfected with human or rat melanocortinin receptors are grown either as adherent monolayers or suspension culture. Monolayer cells are grown in roller bottle cultures at 37° C. and 5% CO2/air atmosphere in a 3:1 mixture of Dulbecco's modified Eagle medium (DMEM) and Ham's F12 containing 25 mM L-glucose, 100 units/ml penicillin G, 100 microgram/ml streptomyocin, 250 nanogram/ml amphoterin B, 300 microgram/ml genticin and supplemented with 5% fetal bovine serum. Monolayer cells are adapted to suspension culture (Berg et al., Biotechniques Vol. 14, No.6, 1993) and are grown in spinner or shaker flasks (37° C. and 7.5% CO2/air overlay) in a modified DME/F12 medium containing 0.1 mM CaCl2, 2% equine serum and 100 microgram/ml sodium heparin (to prevent cell-cell aggregation). Cells are harvested by centrifugation, washed in PBS, and pellets are stored frozen at −80° C. until membrane preparations.
The cell pellets are resuspended in 10 volumes of membrane preparation buffer (i.e., 1 g pellet to 10 ml buffer) having the following composition: 50 mM Tris pH 7.5 @ 4° C., 250 mM sucrose, 1 mM MgCl2, Complete® EDTA-free protease inhibitor tablet (Boehringer Mannheim), and 24 micrograms/ml DNase I (Sigma, St. Louis, Mo.). The cells are homogenized with a motor-driven dounce using 20 strokes, and the homogenate is centrifuged at 38,000×g at 4° C. for 40 minutes. […]
Solutions of a compound of formula I (300 picomolar to 30 micromolar) or unlabelled NDP-alpha-MSH (1 picomolar to 100 nanomolar) are added to 150 microliters of membrane binding buffer to yield final concentrations (listed in parantheses). […] The radioactivity is quantified in a Wallac Trilux Microplate Scintillation counter. […]

MC4 [2] = molecular target: T1, MC4; experiment: Functional agonist assay in HEK 293 cells stably expressing melanocortin receptor (luciferase reporter / whole cell cAMP accumulation); type: cell-based; settings: for EC50: agonist potency, concentration giving half maximal stimulation; for % Rel. Eff.: relative efficacy compared to NDP-alpha-MSH defined as 100% agonist
Source text: Functional cell based assays are developed to discriminate agonists and antagonists.
Agonist Assay: HEK 293 cells stably expressing a human melanocortin receptor (see e.g., Yang, et al., Mol-Endocrinol., 11(3): 274-80, 1997) are dissociated from tissue culture flasks using a trypsin/EDTA solution (0.25%; Life Technologies, Rockville, Md.). Cells are collected by centrifugation and resuspended in DMEM (Life Technologies, Rockville, Md.) supplemented with 1% L-glutamine and 0.5% fetal bovine serum. Cells are counted and diluted to 4.5×10^5/ml.
A compound of formula I is diluted in dimethylsulfoxide (DMSO) (3×10^−5 to 3×10^−10 M final concentrations) and 0.05 volume of compound solution is added to 0.95 volumes of cell suspension; the final DMSO concentration is 0.5%. After incubation at 37° C./5% CO2 for 5 hours, cells are lysed by addition of luciferin solution (50 mM Tris, 1 mM MgCl2, 0.2% Triton-X100, 5 mM DTT, 500 micromolar Coenzyme A, 150 micromolar ATP, and 440 micromolar luciferin) to quantify the activity of the reporter gene luciferase, an indirect measurement of intracellular cAMP production.
Luciferase activity is measured from the cell lysate using a Wallac Victor 2 luminometer. The amount of lumen production which results from a compound of formula I is compared to that amount of lumens produced in response to NDP-alpha-MSH, defined as a 100% agonist, to obtain the relative efficacy of a compound. The EC50 is defined as the compound concentration that results in half maximal stimulation, when compared to its own maximal level of stimulation.
In the agonist assay, compounds are prepared as 10 mM and NDP-aMSH (control) as 33.3 μM stock solutions in 100% DMSO. These are serially diluted in 100% DMSO. The compound plate is further diluted 1:200 in compound dilution buffer (HBSS-092, 1 mM Ascorbic Acid, 1 mM IBMX, 0.6% DMSO, 0.1% BSA). The final concentration range being 10 μM-100 pM for compound and 33.33 nM-0.3 pM for control in 0.5% DMSO. Transfer 20 μl from this plate into four PET 96-well plates (all assays are performed in duplicate for each receptor).
HEK 293 cells stably transfected with the MC3R and MC4R were grown in DMEM containing 10% FBS and 1% Antibiotic/Antimycotic Solution. On the day of the assay the cells were dislodged with enzyme free cell dissociation solution and resuspended in cell buffer (HBSS-092, 0.1% BSA, 10 mM HEPES) at 1×e6 cells/ml. Add 40 μl of cells/well to the PET 96-well plates containing 20 ul diluted compound and control. Incubate @ 37° C. in a waterbath for 20 minutes. Stop the assay by adding 50 μl Quench Buffer (50 mM Na Acetate, 0.25% Triton X-100).
Radioligand binding assays were run in SPA buffer (50 mM Sodium Acetate, 0.1% BSA). The beads, antibody and radioligand were diluted in SPA buffer to provide sufficient volume for each 96-well plate. To each quenched assay well was added 100 ul cocktail containing 33.33 ul of beads, 33.33 μl antibody and 33.33 μl ^125 I-cAMP. This was based on a final concentration of 6.3 mg/ml beads, 0.65% anti-goat antibody and 61 pM of ^125I-cAMP (containing 25000-30000 CPM) in a final assay volume of 210 μl. The plates were counted in a Wallac MicroBeta counter after a 12-hour incubation.
The data was converted to pmoles cAMP using a standard curve assayed under the same conditions. The data was analyzed using Activity Base software to generate agonist potencies (EC50) and percent relative efficacy data to NDP-aMSH.

T1 sequence (P32245 whole entry): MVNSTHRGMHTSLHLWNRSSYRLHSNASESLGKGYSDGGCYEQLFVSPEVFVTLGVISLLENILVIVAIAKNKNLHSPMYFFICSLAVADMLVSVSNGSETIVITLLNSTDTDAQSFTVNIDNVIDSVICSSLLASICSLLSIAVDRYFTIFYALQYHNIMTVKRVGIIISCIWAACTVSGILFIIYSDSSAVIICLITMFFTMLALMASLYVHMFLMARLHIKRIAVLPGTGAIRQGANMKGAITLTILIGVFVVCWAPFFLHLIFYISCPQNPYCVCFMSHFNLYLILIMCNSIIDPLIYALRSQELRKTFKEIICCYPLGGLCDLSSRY

SMILES: CC(C)CC1(N2CCN(C(=O)[C@@H](Cc3ccc(Cl)cc3)NC(=O)CC3NCc4ccccc43)CC2)CCCC1 (stereo partly drawn) [Example 8I]
- Ki (MC4 [1]): 28.8 nM
- EC50 (MC4 [2]): 99.8 nM
- % Rel. Eff. (MC4 [2]): 124%

SMILES: CN1CCC(Cc2ccccc2F)(N2CCN(C(=O)[C@@H](Cc3ccc(Cl)cc3)NC(=O)CC3NCc4ccccc43)CC2)CC1 (stereo partly drawn) [Example 4I]
- Ki (MC4 [1]): 24.3 nM
- EC50 (MC4 [2]): 18.9 nM
- % Rel. Eff. (MC4 [2]): 114%

SMILES: CN1CCC(CC2CCCCC2)(N2CCN(C(=O)[C@@H](Cc3ccc(Cl)cc3)NC(=O)CC3NCc4ccccc43)CC2)CC1 (stereo partly drawn) [Example 10I]
- Ki (MC4 [1]): 6.5 nM
- EC50 (MC4 [2]): 25.4 nM
- % Rel. Eff. (MC4 [2]): 112%
